{
  "source": "ChEMBL document CHEMBL3044946",
  "about": "“Glyphosate resistance in perennial ryegrass (Lolium perenne L.) from Argentina” (2012)",
  "key": {"[1]": {"test_system": "Lolium perenne", "assay": "Reduction in chlorophyll content in glyphosate-resistant Lolium perenne (perennial ryegrass) at 1000 to 3000 g ae/ha measured after 10 days post compound application", "type": "functional, organism-based"}, "[2]": {"test_system": "Lolium perenne", "assay": "Herbicidal activity against glyphosate-resistant Lolium perenne (perennial ryegrass) assessed as plant-regrowth at 2880 g ae/ha measured 30 days after compound application", "type": "functional"}, "[3]": {"test_system": "Lolium perenne", "assay": "Herbicidal activity against glyphosate-susceptible Lolium perenne (perennial ryegrass) assessed as inhibition of germination", "type": "functional"}, "[4]": {"test_system": "Lolium perenne", "assay": "Induction of shikimate accumulation in leaf lamina of glyphosate-susceptible Lolium perenne (perennial ryegrass) at 1440 g ae/ha measured 24 hr post compound application", "type": "functional, organism-based"}, "[5]": {"test_system": "Lolium perenne", "assay": "Herbicidal activity against glyphosate-resistant Lolium perenne (perennial ryegrass) assessed as inhibition of plumule growth", "type": "functional"}, "[6]": {"test_system": "Lolium perenne", "assay": "Induction of shikimate accumulation in leaf sheath of glyphosate-resistant Lolium perenne (perennial ryegrass) at 1440 g ae/ha measured 24 to 72 hr post compound application", "type": "functional, organism-based"}, "[7]": {"test_system": "Lolium perenne", "assay": "Resistance index, ratio of GR50 for glyphosate-resistant Lolium perenne (perennial ryegrass) to GR50 for glyphosate-susceptible Lolium perenne (perennial ryegrass) by plumule growth inhibition study", "type": "functional"}, "[8]": {"test_system": "Lolium perenne", "assay": "Herbicidal activity against glyphosate-resistant Lolium perenne (perennial ryegrass) assessed as plant-regrowth at 720 g ae/ha measured 30 days after compound application", "type": "functional"}, "[9]": {"test_system": "Lolium perenne", "assay": "Induction of shikimate accumulation in leaf blades of glyphosate-susceptible Lolium perenne (perennial ryegrass) at 1440 g ae/ha measured 48 hr post compound application", "type": "functional, organism-based"}, "[10]": {"test_system": "Lolium perenne", "assay": "Herbicidal activity against glyphosate-susceptible Lolium perenne (perennial ryegrass) assessed as inhibition of plumule growth", "type": "functional"}, "[11]": {"test_system": "Lolium perenne", "assay": "Herbicidal activity against glyphosate-resistant Lolium perenne (perennial ryegrass) assessed as inhibition of plant survival measured after 15 days post compound application", "type": "functional"}, "[12]": {"test_system": "Lolium perenne", "assay": "Resistance index, ratio of ED50 for glyphosate-resistant Lolium perenne (perennial ryegrass) to ED50 for glyphosate-susceptible Lolium perenne (perennial ryegrass) by plant survival inhibition study", "type": "functional"}, "[13]": {"test_system": "Lolium perenne", "assay": "Herbicidal activity against glyphosate-resistant Lolium perenne (perennial ryegrass) assessed as regrowth level of controlled plants at 1440 g ae/ha measured 30 days after compound application", "type": "functional"}, "[14]": {"test_system": "Lolium perenne", "assay": "Induction of shikimate accumulation in leaf lamina of glyphosate-susceptible Lolium perenne (perennial ryegrass) at 1440 g ae/ha measured 72 hr post compound application", "type": "functional, organism-based"}, "[15]": {"test_system": "Lolium perenne", "assay": "Herbicidal activity against glyphosate-resistant Lolium perenne (perennial ryegrass) assessed as regrowth level of controlled plants at 720 g ae/ha measured 30 days after compound application", "type": "functional"}, "[16]": {"test_system": "Lolium perenne", "assay": "Herbicidal activity against glyphosate-resistant Lolium perenne (perennial ryegrass) assessed as inhibition of germination", "type": "functional"}, "[17]": {"test_system": "Lolium perenne", "assay": "Induction of shikimate accumulation in leaf sheath of glyphosate-susceptible Lolium perenne (perennial ryegrass) at 1440 g ae/ha measured 48 hr post compound application", "type": "functional, organism-based"}, "[18]": {"test_system": "Lolium perenne", "assay": "Resistance index, ratio of LD50 for glyphosate-resistant Lolium perenne (perennial ryegrass) to LD50 for glyphosate-susceptible Lolium perenne (perennial ryegrass) by germination inhibition study", "type": "functional"}, "[19]": {"test_system": "Lolium perenne", "assay": "Herbicidal activity against glyphosate-resistant Lolium perenne (perennial ryegrass) assessed as regrowth level of controlled plants at 360 g ae/ha measured 30 days after compound application", "type": "functional"}, "[20]": {"test_system": "Lolium perenne", "assay": "Reduction in chlorophyll content in glyphosate-susceptible Lolium perenne (perennial ryegrass) at 1000 to 3000 g ae/ha measured after 7 to 10 days post compound application", "type": "functional, organism-based"}, "[21]": {"test_system": "Lolium perenne", "assay": "Herbicidal activity against glyphosate-resistant Lolium perenne (perennial ryegrass) assessed as plant-regrowth at 360 g ae/ha measured 30 days after compound application", "type": "functional"}, "[22]": {"test_system": "Lolium perenne", "assay": "Herbicidal activity against glyphosate-resistant Lolium perenne (perennial ryegrass) assessed as regrowth level of controlled plants at 2880 g ae/ha measured 30 days after compound application", "type": "functional"}, "[23]": {"test_system": "Lolium perenne", "assay": "Herbicidal activity against glyphosate-susceptible Lolium perenne (perennial ryegrass) assessed as inhibition of plant survival measured after 15 days post compound application", "type": "functional"}, "[24]": {"test_system": "Lolium perenne", "assay": "Induction of shikimate accumulation in leaf blade of glyphosate-resistant Lolium perenne (perennial ryegrass) at 1440 g ae/ha measured 24 to 72 hr post compound application", "type": "functional, organism-based"}, "[25]": {"test_system": "Lolium perenne", "assay": "Herbicidal activity against glyphosate-resistant Lolium perenne (perennial ryegrass) assessed as plant-regrowth at 1440 g ae/ha measured 30 days after compound application", "type": "functional"}},
  "note": "The source made the active and inactive calls. No cut-off for these calls is given here.",
  "data": [
    {"smiles": "O=C(O)CNCP(=O)(O)O", "note": "[GLYPHOSATE]", "values": [
      {"measurement": "Activity", "setting": "[1]", "result": "inactive"},
      {"measurement": "Activity", "setting": "[2]", "result": 25, "unit": "%"},
      {"measurement": "LD50", "setting": "[3]", "result": 42, "unit": "gAe/L"},
      {"measurement": "Activity", "setting": "[4]", "result": "Active"},
      {"measurement": "GR50", "setting": "[5]", "result": 41.5, "unit": "gAe/L"},
      {"measurement": "Activity", "setting": "[6]", "result": "inactive"},
      {"measurement": "Ratio", "setting": "[7]", "result": 4.4},
      {"measurement": "Activity", "setting": "[8]", "result": 17, "unit": "%"},
      {"measurement": "Activity", "setting": "[9]", "result": "Active"},
      {"measurement": "GR50", "setting": "[10]", "result": 9.3, "unit": "gAe/L"},
      {"measurement": "ED50", "setting": "[11]", "result": 1495, "unit": "gAe/L"},
      {"measurement": "Ratio", "setting": "[12]", "result": 10.8},
      {"measurement": "Activity", "setting": "[13]", "result": 43, "unit": "%"},
      {"measurement": "Activity", "setting": "[14]", "result": "Active"},
      {"measurement": "Activity", "setting": "[15]", "result": 48, "unit": "%"},
      {"measurement": "LD50", "setting": "[16]", "result": 138, "unit": "gAe/L"},
      {"measurement": "Activity", "setting": "[17]", "result": "Active"},
      {"measurement": "Ratio", "setting": "[18]", "result": 3.2},
      {"measurement": "Activity", "setting": "[19]", "result": 37, "unit": "%"},
      {"measurement": "Activity", "setting": "[20]", "result": "Active"},
      {"measurement": "Activity", "setting": "[21]", "result": 6, "unit": "%"},
      {"measurement": "Activity", "setting": "[22]", "result": 33, "unit": "%"},
      {"measurement": "ED50", "setting": "[23]", "result": 138.1, "unit": "gAe/L"},
      {"measurement": "Activity", "setting": "[24]", "result": "inactive"},
      {"measurement": "Activity", "setting": "[25]", "result": 23, "unit": "%"}
    ]}
  ]
}
